{"source": "patent US20190185507A1", "about": "(priority 2016, published 2019)", "key": {"[1]": {"system": "HCV (Jc-1 Wild-type virus)", "test": "Efficacy testing of Sofosbuvir and n-Propyl-Sofosbuvir in HCV-infected Huh7.5 cells, quantitative PCR of HCV RNA in supernatant", "assay_type": "cell-based, Hepatitis C virus", "conditions": "for virus reduction / Ct-value (threshold cycle) of HCV-RNA: single application 48 h post infection; for virus reduction: two days treatment, inferred from Ct 28 vs 25; for Ct-value (threshold cycle) of HCV-RNA: μM range down to lowest dose, RNA extracted two days later, SYBR Green kit, untreated control Ct around 25 (FIG. 1); for antiviral profile (reduction of viral titer): single application, 72 h, concentrations down to 9 nM, Altona HCV quantification kit (FIG. 4); for amount of viral RNA (viral load) / reduction of viral RNA: two-time application, highest concentrations; for amount of viral RNA (viral load): CE-labeled PCR HCV quantification kit, controls around 10^7 IU/ml (FIG. 7); for reduction of viral RNA: versus controls", "procedure": "HCV histochemistry and determination of virus titers. To determine virus titers, the protocol described by Linden bach et al. (2005) is slightly modified. 1×10^4 Huh-7.5 cells or 0.7×10^4 Lunet cells were seeded per 96-well 24 h prior to infection. Six wells are infected simultaneously with the same dilution of filtered cell culture supernatants of HCV transfected or infected cells. Usually, the first dilution is a 1:10 dilution followed by 1:6 dilutions. 72 h after infection, the cells are washed once with PBS and then fixed in ice-cold methanol for 20 min at −20° C. Afterwards, the cells are washed with PBS and then permeabilized with 0.5% Triton X-100 in PBS for 5 min at RT. The first antibody detecting the HCV NSSA protein (9E10) is diluted 1:2000 in PBS and was incubated on the cells for 1 h. Then the cells are washed again three times with PBS and stained with the secondary antibody (goat a-mouse coupled to HRP, Sigma) 1:200 in PBS for 45 min at RT. To detect the HCV positive cells, the wells are first washed again three times with PBS and then the HRP activity is detected by the addition of 30 μl Carbazole substrate/96-well for 15 min at RT. Afterwards, the substrate is replaced with water and the wells were analyzed by light microscopy for positive cells. The 50% tissue culture infectious dose (TCID50) is calculated based on the methods described by Spearman and Karber. By this, the concentrations of a virus isolation needed to infect 50% of a given number of wells is determined (Spearman, 1908). qPCR of viral supernatant. Total RNA was extracted by the Altostar system according to the protocol of the manufacturer. A Power SYBR Green RNA-to-Ct 1-step kit (Applied Biosystems) is used to quantify the amount of HCV RNA. Primers specific for the 5′ UTR are 5′-TGCGGAACCGGTGAGTACA-3′ (forward) and […]. The PCR program conditions are as follows: 30 min at 48° C. for reverse transcription, 10 min at 95° C. for enzyme activation, and 40 cycles of amplification with 15 s at 95° C. for denaturation and 1 min at 60° C. for annealing and extension. Standard curve reactions are run in parallel by using serially diluted Jc1/Gluc2A plasmid ranging from 2.0×10^7 to 2.0×10^0 copies. To confirm obtained for experiment 3 (FIGS. 4 and 7), PCR was performed using the Atlona HCV-quantification kit.\nEfficacy Testing of Sofosbuvir and n-Propyl-Sofosbuvir (compound I″a). Huh7.5 cells (1×10^4 per well) were seeded in a 96-well plate. The following day cells were infected with 8500 TCID50/well of HCV (Jc-1 Wild-type virus) for infection. After 48 h cells were treated with Sofosbuvir, n-Propyl-Sofosbuvir and as a negative control with the solvent used for Sofosbuvir, n-Propyl-Sofosbuvir (DMSO/EtOH) at concentrations given in the Figures. Two days or three later, supernatants were harvested and RNA was extracted by the Altostar system according to the protocol of the manufacturer. Quantitative PCR was performed using the Atlona HCV-quantification kit as recommended by the manufacturer.\nIn one set of experiments, Sofosbuvir and n-Propyl-Sofosbuvir were applied 48 h post infection and again 24 h later as indicated by FIG. 5.\nAll experiments shown represent the mean of at least two independent sets of data performed in duplicates."}, "[2]": {"test": "Bi-directional Caco-2 cell permeability assay", "conditions": "human, Caco-2, pH 7.4", "procedure": "(§1) The bi-directional Caco-2 cell permeability assay was performed as described as follows: Caco-2 cells (ECACC) were seeded onto 24-well Transwell plates at 2×10^5 cells per well and used in confluent monolayers after a 21 day culture at 37° C. under 5% CO2. Test and control compounds (propranolol, vinblastine), prepared in DMSO, were added (10 μM, 0.1% DMSO final, n=2) to donor compartments of the Transwell plate assembly in assay buffer (Hanks balanced salt solution supplemented with 25 mM HEPES, adjusted to pH 7.4) for both apical to basolateral (A>B) and basolateral to apical (B>A) measurements. Incubations were performed at 37° C., with samples removed from both donor and acceptor chambers at T=0 and 1 hour and compound analysed by mass spectrometry (LC-MS/MS) including an analytical internal standard.\n(§2) Apparent permeability (Papp) values were determined from the relationship: Papp=[CompoundAcceptor T=end]×VAcceptor/([CompoundDonor T=0]×VDonor)/incubation time×VDonor/Area×60×10-6 cm/s\n(§3) Where V is the volume of each Transwell compartment (apical 125 μL, basolateral 600 μL), and concentrations are the relative MS responses for compound (normalized to internal standard) in the donor chamber before incubation and acceptor chamber at the end of the incubation.\n(§4) Area=area of cells exposed for drug transfer (0.33 cm2).\n(§5) Efflux ratios (Papp B>A/Papp A>B) were calculated for each compound from the mean Papp values in each direction.\n(§6) Lucifer Yellow (LY) was added to the apical buffer in all wells to assess viability of the cell layer.\n(§7) Compound recovery from the wells was determined from MS responses (normalized to internal standard) in donor and acceptor chambers at the end of incubation compared to response in the donor chamber pre-incubation."}, "Caco-2 cells": {"system": "Caco-2 cells", "test": "Bi-directional Caco-2 cell permeability assay", "conditions": "for permeability classification in the A>B direction: Caco-2; for efflux transporter substrate finding: efflux ratio larger than 2", "procedure": "as §1, §2, §3, §4, §5, §6, §7"}, "[3]": {"system": "HCV-Jc-1 tagged to a yellow fluorescent protein", "conditions": "after 48 h of infection; Liu et al., Antimicrob. Agents Chemother. 2015; cited from earlier work"}}, "data": [{"compound": "CCCOC(=O)[C@H](C)N[P@](=O)(OC[C@H]1O[C@@H](n2ccc(=O)[nH]c2=O)[C@](C)(F)[C@@H]1O)Oc1ccccc1", "note": "[n-Propyl-Sofosbuvir, (S)-n-propyl 2-(((S)-(((2R,3R,4R,5R)-5-(2,4-dioxo-3,4-dihydropyrimidin-1(2H)-yl)-4-fluoro-3-hydroxy-4-methyltetrahydrofuran-2-yl)methoxy)(phenoxy)phosphoryl)-amino)propanoate]", "values": [{"measurement": "virus reduction", "setting": "[1]", "result": "about 1 log"}, {"measurement": "Ct-value (threshold cycle) of HCV-RNA", "setting": "[1]", "result": "around 28"}, {"measurement": "antiviral profile (reduction of viral titer)", "setting": "[1]", "result": "comparable antiviral profile"}, {"measurement": "amount of viral RNA (viral load)", "setting": "[1]", "result": "6.5×10^5 IU/ml"}, {"measurement": "reduction of viral RNA", "setting": "[1]", "result": "about 95%"}, {"measurement": "Papp A→B at 1 h, 10 μM", "setting": "[2]", "result": 2, "unit": "×10⁻⁶ cm/s"}, {"measurement": "efflux ratio at 1 h, 10 μM", "setting": "[2]", "result": 4.4}, {"measurement": "permeability classification in the A>B direction", "setting": "Caco-2 cells", "result": "low permeable"}, {"measurement": "efflux transporter substrate finding", "setting": "Caco-2 cells", "result": "substrates of efflux transporters"}]}, {"compound": "CC(C)OC(=O)[C@H](C)N[P@](=O)(OC[C@H]1O[C@@H](n2ccc(=O)[nH]c2=O)[C@](C)(F)[C@@H]1O)Oc1ccccc1", "note": "[Sofosbuvir, (S)-isopropyl 2-(((S)-(((2R,3R,4R,5R)-5-(2,4-dioxo-3,4-dihydropyrimidin-1(2H)-yl)-4-fluoro-3-hydroxy-4-methyltetrahydrofuran-2-yl)methoxy)(phenoxy)phosphoryl)-amino)propanoate]", "values": [{"measurement": "virus reduction", "setting": "[1]", "result": "about 1 log"}, {"measurement": "Ct-value (threshold cycle) of HCV-RNA", "setting": "[1]", "result": "around 28"}, {"measurement": "antiviral profile (reduction of viral titer)", "setting": "[1]", "result": "comparable antiviral profile"}, {"measurement": "amount of viral RNA (viral load)", "setting": "[1]", "result": "6.5×10^5 IU/ml"}, {"measurement": "reduction of viral RNA", "setting": "[1]", "result": "about 95%"}, {"measurement": "Papp A→B at 1 h, 10 μM", "setting": "[2]", "result": 4, "unit": "×10⁻⁶ cm/s"}, {"measurement": "efflux ratio at 1 h, 10 μM", "setting": "[2]", "result": 4.6}, {"measurement": "permeability classification in the A>B direction", "setting": "Caco-2 cells", "result": "low permeable"}, {"measurement": "efflux transporter substrate finding", "setting": "Caco-2 cells", "result": "substrates of efflux transporters"}, {"measurement": "IC50", "setting": "[3]", "result": "> 10", "unit": "µM"}]}, {"compound": "CC[C@]1(O)C[C@@H]2CN(CCc3c([nH]c4ccccc34)[C@@](C(=O)OC)(c3cc4c(cc3OC)N(C)[C@H]3[C@@](O)(C(=O)OC)[C@H](OC(C)=O)[C@]5(CC)C=CCN6CC[C@]43[C@@H]65)C2)C1", "note": "[vinblastine]", "values": [{"measurement": "Papp A→B at 1 h, 10 μM", "setting": "[2]", "result": 5, "unit": "×10⁻⁶ cm/s"}]}]}
